35 molecules from patent publication US7166738B2, “Non-nucleoside reverse transcriptase inhibitors” (Roche Palo Alto LLC, priority 2004, dated 2007) can be followed below.

Structures are written as SMILES.

Take `Cc1cc(CC(=O)Nc2ccc(S(N)(=O)=O)cc2)cc(Oc2cc(Cl)cc(C#N)c2)c1` [Compound I-141, 2-[3-(3-Chloro-5-cyano-phenoxy)-5-methyl-phenyl]-N-(4-sulfamoyl-phenyl)-acetamide]: the melting point (commonly the temperature, or range, at which the solid turns liquid) was in the range of 183.9 to 185.2 °C.
The figure for `Cc1cc(S(=O)(=O)NC(=O)c2cccnc2)ccc1NC(=O)Cc1ccc(Cl)c(Oc2cc(Cl)cc(C#N)c2)c1F.Cl` is 261.8 to 263.6 °C; for `N#Cc1cc(Cl)cc(Oc2cc(CC(=O)Nc3ccc(S(N)(=O)=O)cc3)ccc2Cl)c1` [Compound I-1, 2-[4-Chloro-3-(3-chloro-5-cyano-phenoxy)-phenyl]-N-(4-sulfamoyl-phenyl)-acetamide] it is 210.5 to 214 °C.
`COc1ccc(CC(=O)Nc2ccc(S(N)(=O)=O)cc2Cl)cc1Oc1cc(C#N)ccc1Cl` [Compound I-67, 2-[3-(2-Chloro-5-cyano-phenoxy)-4-methoxy-phenyl]-N-(2-chloro-4-sulfamoyl-phenyl)-acetamide] had a melting point of 214.6 to 216.4 °C.
In the case of `Cc1cc(S(=O)(=O)CCCO)ccc1NC(=O)Cc1ccc(C)c(Oc2cc(Cl)cc(C#N)c2)c1` [Compound I-157, 2-[3-(3-Chloro-5-cyano-phenoxy)-4-methyl-phenyl]-N-[4-(3-hydroxy-propane-1-sulfonyl)-2-methyl-phenyl]-acetamide] it was 78.9 to 79.5 °C.
In the case of `CCc1ccc(CC(=O)Nc2ccc(S(N)(=O)=O)cc2Cl)cc1Oc1cc(Cl)cc(C#N)c1` [Compound I-47, 2-[3-(3-Chloro-5-cyano-phenoxy)-4-ethyl-phenyl]-N-(2-chloro-4-sulfamoyl-phenyl)-acetamide] it was 181.1 to 183.9 °C; in that of `Cc1cc(CC(=O)Nc2ccc(S(N)(=O)=O)cc2Cl)cc(Oc2cc(C#N)ccc2Cl)c1` [Compound I-148, 2-[3-(2-Chloro-5-cyano-phenoxy)-5-methyl-phenyl]-N-(2-chloro-4-sulfamoyl-phenyl)-acetamide], 212.9 to 214.4 °C.
For the molecule `CCc1ccc(CC(=O)Nc2ccc(S(N)(=O)=O)cc2C)cc1Oc1cc(Br)cc(F)c1Cl` [Compound I-40, 2-[3-(5-Bromo-2-chloro-3-fluoro-phenoxy)-4-ethyl-phenyl]-N-(2-methyl-4-sulfamoyl-phenyl)-acetamide], the melting point lay in the range of 207 to 209.9 °C.
For the molecule `Cc1cc(S(=O)(=O)CCN)ccc1NC(=O)Cc1ccc(C)c(Oc2cc(Cl)cc(C#N)c2)c1` [Compound I-154, N-[4-(2-Amino-ethanesulfonyl)-2-methyl-phenyl]-2-[3-(3-chloro-5-cyano-phenoxy)-4-methyl-phenyl]-acetamide], the melting point is 92.4 to 95.5 °C.
The figure for `Cl.N#Cc1cc(Cl)cc(Oc2c(Cl)ccc(CC(=O)Nc3ccc(S(=O)(=O)NC(=O)CCN)cc3Cl)c2F)c1` is 199.3 to 199.6 °C; for `CCc1ccc(CC(=O)Nc2ccc(S(N)(=O)=O)cc2)cc1Oc1cc(Cl)ccc1Cl` [Compound I-19, 2-[3-(2,5-Dichloro-phenoxy)-4-ethyl-phenyl]-N-(4-sulfamoyl-phenyl)-acetamide] it is 190 to 193.4 °C; for `Cc1cc(CC(=O)Nc2ccc(S(N)(=O)=O)cc2C)cc(Oc2cc(C#N)ccc2Cl)c1` [Compound I-147, 2-[3-(2-Chloro-5-cyano-phenoxy)-5-methyl-phenyl]-N-(2-methyl-4-sulfamoyl-phenyl)-acetamide] it is 200.3 to 201.1 °C.
`Cc1cc(S(N)(=O)=O)ccc1NC(=O)Cc1ccc(Cl)c(Oc2cc(Br)cc(C#N)c2)c1F` [Compound I-185, 2-[3-(3-Bromo-5-cyano-phenoxy)-4-chloro-2-fluoro-phenyl]-N-(2-methyl-4-sulfamoyl-phenyl)-acetamide] returned a melting point of 246 to 250.6 °C.
The figure for `Cc1cc(C(=O)CN2CCN(C)CC2)ccc1NC(=O)Cc1ccc(C)c(Oc2cc(Cl)cc(C#N)c2)c1` [Compound I-159, 2-[3-(3-Chloro-5-cyano-phenoxy)-4-methyl-phenyl]-N-{2-methyl-4-[2-(4-methyl-piperazin-1-yl)-acetyl]-phenyl}-acetamide] is 62.3 to 64.1 °C.
Consider `NS(=O)(=O)c1ccc(NC(=O)Cc2cc(Oc3cc(Cl)cc(Cl)c3)c3occc3c2)c(Cl)c1` [Compound I-149, N-(2-Chloro-4-sulfamoyl-phenyl)-2-[7-(3,5-dichloro-phenoxy)-benzofuran-5-yl]-acetamide], for which the melting point is 215.1 to 216.6 °C.
In the case of `N#Cc1cc(Oc2c(Cl)ccc(CC(=O)Nc3ccc(S(N)(=O)=O)cc3)c2F)cc(C(F)F)c1` [Compound I-13, 2-[4-Chloro-3-(3-cyano-5-difluoromethyl-phenoxy)-2-fluoro-phenyl]-N-(4-sulfamoyl-phenyl)-acetamide] it was 214 to 218 °C.
`CC(C)c1ccc(CC(=O)Nc2ccc(S(N)(=O)=O)cc2)cc1Oc1cc(Cl)ccc1Br` [Compound I-26, 2-[3-(2-Bromo-5-chloro-phenoxy)-4-isopropyl-phenyl]-N-(4-sulfamoyl-phenyl)-acetamide] registered a melting point of 204.1 to 206.7 °C.
With `CC(F)(F)c1cc(C#N)cc(Oc2c(Cl)ccc(CC(=O)Nc3ccc(S(N)(=O)=O)cc3)c2F)c1` [Compound I-95, 2-{4-Chloro-3-[3-cyano-5-(1,1-difluoro-ethyl)-phenoxy]-2-fluoro-phenyl}-N-(4-sulfamoyl-phenyl)-acetamide], the melting point was 207 to 209.8 °C.
Take `COCC(=O)NS(=O)(=O)c1ccc(NC(=O)Cc2ccc(Cl)c(Oc3cc(Cl)cc(C#N)c3)c2F)c(Cl)c1.[Na]`: the melting point lay in the range of 151.7 to 152.3 °C.
In the case of `Cc1cc(S(N)(=O)=O)ccc1NC(=O)Cc1ccc(C)c(Oc2cc(Cl)cc(C#N)c2)c1` [Compound I-122, 2-[3-(3-Chloro-5-cyano-phenoxy)-4-methyl-phenyl]-N-(2-methyl-4-sulfamoyl-phenyl)-acetamide] it was 192.8 to 194.1 °C; in that of `N#Cc1cccc(Oc2cc(CC(=O)Nc3ccc(S(N)(=O)=O)cc3)cc3ccoc23)c1` [Compound I-144, 2-[7-(3-Cyano-phenoxy)-benzofuran-5-yl]-N-(4-sulfamoyl-phenyl)-acetamide], 196.4 to 198.7 °C; in that of `Cc1cc(OC[C@@H](O)CO)ccc1NC(=O)Cc1ccc(C)c(Oc2cc(Cl)cc(C#N)c2)c1` [Compound I-150, 2-[3-(3-Chloro-5-cyano-phenoxy)-4-methyl-phenyl]-N-[4-((S)-2,3-dihydroxy-propoxy)-2-methyl-phenyl]-acetamide], 137.5 to 138.4 °C.
In the case of `CCc1ccc(CC(=O)Nc2ccc(S(N)(=O)=O)cc2C)cc1Oc1cc(C#N)cc(F)c1Cl` [Compound I-50, 2-[3-(2-Chloro-5-cyano-3-fluoro-phenoxy)-4-ethyl-phenyl]-N-(2-methyl-4-sulfamoyl-phenyl)-acetamide] it was 217.6 to 220.4 °C; in that of `CCc1ccc(CC(=O)Nc2ccc(S(N)(=O)=O)cc2)cc1Oc1cc(Br)cc(F)c1Cl` [Compound I-39, 2-[3-(5-Bromo-2-chloro-3-fluoro-phenoxy)-4-ethyl-phenyl]-N-(4-sulfamoyl-phenyl)-acetamide], 209.9 to 211.1 °C.
As to `CC(C)CC(=O)NS(=O)(=O)c1ccc(NC(=O)Cc2ccc(Cl)c(Oc3cc(Cl)cc(C#N)c3)c2F)c(Cl)c1.[Na]`, the melting point is 159.3 to 163.4 °C.
`Cc1cc(S(=O)(=O)CCC#N)ccc1NC(=O)Cc1ccc(C)c(Oc2cc(Cl)cc(C#N)c2)c1` [Compound I-137, 2-[3-(3-Chloro-5-cyano-phenoxy)-4-methyl-phenyl]-N-[4-(2-cyano-ethanesulfonyl)-2-methyl-phenyl]-acetamide] showed a melting point of 186.1 to 188 °C.
On to `CC(C)CCC(=O)NS(=O)(=O)c1ccc(NC(=O)Cc2ccc(Cl)c(Oc3cc(Cl)cc(C#N)c3)c2F)c(Cl)c1.[Na]`, for which the melting point lay in the range of 195.6 to 197 °C.
On to `CCC(=O)N(C)S(=O)(=O)c1ccc(NC(=O)Cc2ccc(Cl)c(Oc3cc(Cl)cc(C#N)c3)c2F)c(Cl)c1` [Compound I-162, 2-[4-Chloro-3-(3-chloro-5-cyano-phenoxy)-2-fluoro-phenyl]-N-[2-chloro-4-(methyl-propionyl-sulfamoyl)-phenyl]-acetamide], for which the melting point was in the range of 198.2 to 200.6 °C.
`CCc1cc(CC(=O)Nc2ccc(S(N)(=O)=O)cc2C)cc(Oc2cc(C#N)ccc2Cl)c1` [Compound I-106, 2-[3-(2-Chloro-5-cyano-phenoxy)-5-ethyl-phenyl]-N-(2-methyl-4-sulfamoyl-phenyl)-acetamide] had a melting point of 231.6 to 233.1 °C.
In the case of `CCc1ccc(CC(=O)Nc2ccccc2Cl)cc1Oc1cc(Cl)ccc1Cl` [Compound I-21, N-(2-Chloro-phenyl)-2-[3-(2,5-dichloro-phenoxy)-4-ethyl-phenyl]-acetamide] it was 146.3 to 147.1 °C; in that of `CCC(=O)N(C)S(=O)(=O)c1ccc(NC(=O)Cc2ccc(Cl)c(Oc3cc(Cl)cc(C#N)c3)c2F)c(C)c1` [Compound I-99, 2-[4-Chloro-3-(3-chloro-5-cyano-phenoxy)-2-fluoro-phenyl]-N-[2-methyl-4-(methyl-propionyl-sulfamoyl)-phenyl]-acetamide], 212 to 216.9 °C; in that of `Cc1cc(C#N)cc(C)c1Oc1cc(CC(=O)Nc2ccccc2Cl)ccc1Cl` [Compound I-68, 2-[4-Chloro-3-(4-cyano-2,6-dimethyl-phenoxy)-phenyl]-N-(2-chloro-phenyl)-acetamide], 183.9 to 185.1 °C.
Turning to `COc1ccc(CC(=O)Nc2ccc(S(N)(=O)=O)cc2Cl)c(F)c1Oc1cc(Cl)cc(C#N)c1` [Compound I-190, 2-[3-(3-Chloro-5-cyano-phenoxy)-2-fluoro-4-methoxy-phenyl]-N-(2-chloro-4-sulfamoyl-phenyl)-acetamide], the melting point was 212 to 212.8 °C.
In the case of `Cc1ccc(CC(=O)Nc2ccccc2Cl)cc1Oc1cc(C#N)cc(C#N)c1` [Compound I-34, N-(2-Chloro-phenyl)-2-[3-(3,5-dicyano-phenoxy)-4-methyl-phenyl]-acetamide] it was 175.1 to 177.5 °C.
Consider `CNS(=O)(=O)c1ccc(NC(=O)Cc2ccc(Cl)c(Oc3cc(Cl)cc(C#N)c3)c2F)c(Cl)c1` [Compound I-168, 2-[4-Chloro-3-(3-chloro-5-cyano-phenoxy)-2-fluoro-phenyl]-N-(2-chloro-4-methylsulfamoyl-phenyl)-acetamide], for which the melting point lay within 199.1 to 200 °C.
